# From patent US6488909B1, “Chelating agents as well as their tricarbonyl complexes with technetium and rhenium” (Schering Aktiengesellschaft, priority 1998, dated 2002)
# Experiments:
# [1] = Stability study: histidine challenge, radiochemical composition by HPLC on RP18 column; type: physicochemical; conditions: stirred 1 hour at 50° C.
# Protocol: (§1) The complexes are stable, so that at room temperature, no exchange of chelating agents for histidine is carried out. The. chelates and tricarbonyl-Tc-99m and Re-tricarbonyl complexes that are described in this invention are thus clearly better suited for diagnostic and therapeutic purposes than the previously known systems. A special advantage of the compounds according to the invention consists in the fact that their syntheses can be directed without using sulfur protective groups. This makes their synthesis very simple, and in addition, such compounds that are described according to the invention in particular offer the advantage that after radiochemical labeling, no further foreign molecules are contained in the solutions that are to be administered intravenously for radiodiagnosis or radiotherapy. Such foreign molecules frequently disrupt the biodistribution of the radiopharmaceutical agent and can adversely affect the diagnostic information content of the SPECT imaging. In addition, the labelings on such ligands or their coupling products can be performed on substances that accumulate selectively on diseased tissues under very mild conditions. […]
# [2] = Incubation of the Tc-99m-tricarbonyl complex in serum; type: in vitro ADME; conditions: 26 hours of incubation in serum
# Protocol: as §1
radiochemical composition (HPLC chromatogram) after histidine challenge ([1]; 20 mg of histidine),decomposition products after incubation in serum [2],radiochemical composition (HPLC chromatogram) after histidine challenge ([1]; 10 mg of histidine),Substance
unchanged,,,Tc-99m-Tricarbonyl Complex of {2-(1H-pyrazol1-yl)-ethylimino}-diacetic Acid-monopropylamide [Example 7b]
,no decomposition products,unchanged,Tc-99m-Tricarbonyl complex of N-(hydroxycarboxy-methyl)-N-(N′-propyl-carbamido-methyl)-S-ethyl-2-mercaptoethylamine [Example 2b]
